Read-outs that look alike come from different tables or passages of the source. Marks after values point to notes of the source that are not given here.
Key:
human OT receptors = biological target: T1, human OT receptors (Homo sapiens, UniProt P30559); assay type: cell-based
T1 construct: expressed in transfected cells; host or cells: HEK-293 cells (stably transformed, G418 selection)
T1 sequence (P30559 1-389): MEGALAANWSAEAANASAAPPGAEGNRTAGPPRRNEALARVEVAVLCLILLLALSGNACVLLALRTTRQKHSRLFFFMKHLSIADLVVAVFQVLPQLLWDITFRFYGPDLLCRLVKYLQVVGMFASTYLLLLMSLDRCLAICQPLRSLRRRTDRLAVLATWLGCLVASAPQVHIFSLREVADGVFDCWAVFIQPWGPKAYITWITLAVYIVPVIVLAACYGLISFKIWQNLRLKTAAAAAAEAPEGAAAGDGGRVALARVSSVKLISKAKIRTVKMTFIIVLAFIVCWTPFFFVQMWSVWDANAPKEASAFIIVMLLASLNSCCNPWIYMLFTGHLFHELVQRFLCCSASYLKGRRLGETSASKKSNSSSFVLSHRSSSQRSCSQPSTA
Method: Plasmid constructs were described previously (Amina et al. 2010). Human embryonic kidney HEK‐293 cells were maintained in Dulbecco's Modified Eagle's Medium (DMEM) supplemented with 10% fetal bovine serum (FBS) and Geneticin G418 100 μg/mL at 37°C in a humidified atmosphere of 95% air and 5% CO2. Cells were grown in culture dishes to 80–90% confluence and transfected with the expression plasmid pcDNAHOXTR‐376R or pcDNA3(+) (Invitrogen, Carlsbad, CA) (MOCK‐transfected cells), using FuGENE HD Transfection Reagent (Roche, Basel, Switzerland) in accordance with the manufacturer's instructions.
We measured [Ca^2+]i using the fluorescent Ca^2+ indicator fura‐2‐acetoxymethyl ester (fura‐2/AM). Transfected HEK‐293 cells were loaded with fura‐2/AM to a final concentration of 1 μmol/L in complete medium and incubated at 37°C as reported previously (Ma et al. 2013). After 30‐min loading, the cells were washed three times with HEPES‐buffered saline (HBS) solution (145 mmol/L NaCl, 5 mmol/L KCl, 1 mmol/L MgCl2, 20 mmol/L HEPES‐NaOH, 2 mmol/L CaCl2, 20 mmol/L glucose, pH 7.4). The fluorescence of the cells loaded with fura‐2/AM was then measured at 37°C, at the determined sites, through a pinhole (10–20 μm in diameter). We used alternating excitation wavelengths of 340 and 380 nm in a Ca^2+ microspectrofluorometric system (IX‐73 Model; Olympus, Tokyo, Japan) and Metafluor software (Molecular Devices, Sunnyvale, CA), as described previously (Hashii et al. 2000). […] The ratio of fluorescence at 340 nm and 380 nm (F340/F380) was used to determine [Ca^2+]i. All data were normalized to the baseline fluorescence (F0) recorded 10 s before addition, and given as F/F0 where F – maximal ratio of fluorescence after drug's application.

[1] = male, ICR, mouse, in vivo, ip, 100 ng/kg, 0.5 h
Method: Mouse CSF was obtained according the techniques described by Jin et al. (2007). […] Thirty minutes or 24 h later, the mice were anaesthetized with intraperitoneal injection of pentobarbital. The skin over the posterior neck was removed by two incisions, the first in the midline from the low cervical area to the anterior cranium and the second across the craniocervical junction. Subcutaneous tissue and nuchal muscles were exposed, sectioned along the rim of the occipital bone and then removed laterally unveiling the glistening clear arachnoid membrane overlying the cisterna magna. A micropipette was guided into the cisterna magna.
The micropipette was constructed by cutting a 30‐gauge needle with scissors to approximately 6–7 mm. The needle was then inserted 4–5 mm into the lumen of a 10 μL micropipette. CSF samples were obtained between 8.00 and 11.00 AM, and usually 5 μL of clear CSF was obtained.
(§1) Protein content was determined using a Bio‐Rad protein assay kit and bovine serum albumin assay standard (Bio‐Rad, Hercules, CA).

[2] = male, ICR, mouse, in vivo, ip, 100 ng/kg
Method: Thirty minutes or 24 h later, mice were anesthetized by an intraperitoneal injection of pentobarbital. Blood samples of 0.1 mL were collected by cardiac puncture in EDTA and aprotinin‐coated capillaries and centrifuged at 1600g for 15 min at 4°C. Plasma samples were collected and stored at –80°C until use.
as §1

[3] = drug responses at 10^−8 mol/L relative to OT as 100%, HEK‐293 cells expressing pcDNAHOXTR‐376R, mean ± SEM, n = 25

| Percentage of maximum Ca^2+ mobilization (human OT receptors; 10.0) | Compound | Percentage of maximum Ca^2+ mobilization (human OT receptors; [3]) | level of OT in the CSF [1] [ng/mL] | plasma level of OT ([2]; 0.5 h) [ng/mL] | plasma level of OT ([2]; 24 h) [ng/mL] |
| --- | --- | --- | --- | --- | --- |
|  | CCCCCCCCCCCCCCCC(=O)N[C@H]1CSSC[C@@H](C(=O)N2CCC[C@H]2C(=O)N[C@@H](CC(C)C)C(=O)NCC(N)=O)NC(=O)[C@H](CC(N)=O)NC(=O)[C@H](CCC(N)=O)NC(=O)[C@H]([C@@H](C)CC)NC(=O)[C@H](Cc2ccc(OC(=O)CCCCCCCCCCCCCCC)cc2)NC1=O [LOT‐1, lipo‐oxytocin‐1] | 12.6 ± 1.8 ^a ^, ^c % |  |  |  |
| 13.1 ± 1.8 ^a ^, ^c % | CCCCCCCCCCCCCCCC(=O)Oc1ccc(C[C@@H]2NC(=O)[C@@H](N)CSSC[C@@H](C(=O)N3CCC[C@H]3C(=O)N[C@@H](CC(C)C)C(=O)NCC(N)=O)NC(=O)[C@H](CC(N)=O)NC(=O)[C@H](CCC(N)=O)NC(=O)[C@H]([C@@H](C)CC)NC2=O)cc1 [LOT‐3, lipo‐oxytocin‐3] |  |  |  |  |
|  | CC[C@H](C)[C@@H]1NC(=O)[C@H](Cc2ccc(O)cc2)NC(=O)[C@@H](N)CSSC[C@@H](C(=O)N2CCC[C@H]2C(=O)N[C@@H](CC(C)C)C(=O)NCC(N)=O)NC(=O)[C@H](CC(N)=O)NC(=O)[C@H](CCC(N)=O)NC1=O [OT, Oxytocin] | 100% | 0.347 ± 0.038 | 0.695 ± 0.052 | 0.547 ± 0.039 |
| 45.5 ± 0.83 ^a ^, ^b % | CCCCCCCCCCCCCCCC(=O)N[C@H]1CSSC[C@@H](C(=O)N2CCC[C@H]2C(=O)N[C@@H](CC(C)C)C(=O)NCC(N)=O)NC(=O)[C@H](CC(N)=O)NC(=O)[C@H](CCC(N)=O)NC(=O)[C@H]([C@@H](C)CC)NC(=O)[C@H](Cc2ccc(O)cc2)NC1=O [LOT‐2, lipo‐oxytocin‐2] |  |  |  |  |

Reference: publication PMC5461640 (Pharmacology Research & Perspectives, 2017)
